Experimental data reported in PubChem BioAssay (NCI).
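Briefly, cells in 96-well plates were exposed to five compound concentrations for 48 h, and endpoints were estimated by linear interpolation. TGI denotes the concentration required for complete inhibition of growth.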

Assays:
Experiment in all cases: NCI-60 cell line screen, 48 h
[1] = tested on: SW-620 colon
[2] = tested on: TK-10 renal
[3] = tested on: SR leukemia
[4] = tested on: MOLT-4 leukemia
[5] = tested on: LOX IMVI melanoma
[6] = tested on: HT29 colon
[7] = tested on: SF-268 CNS
[8] = tested on: IGROV1 ovarian
[9] = tested on: MDA-MB-435
[10] = tested on: PC-3 prostate
[11] = tested on: SN12C renal
[12] = tested on: K-562 leukemia
[13] = tested on: UACC-62 melanoma
[14] = tested on: NCI/ADR-RES ovarian
[15] = tested on: EKVX NSCLC
[16] = tested on: M14 melanoma
[17] = tested on: NCI-H226 lung
[18] = tested on: SK-OV-3 ovarian
[19] = tested on: COLO 205 colon
[20] = tested on: MDA-MB-231 breast
[21] = tested on: SF-295 CNS
[22] = tested on: 786-0 renal
[23] = tested on: HL-60(TB) leukemia
[24] = tested on: UACC-257 melanoma
[25] = tested on: HCC-2998 colon
[26] = tested on: BT-549 breast
[27] = tested on: ACHN renal
[28] = tested on: MALME-3M melanoma
[29] = tested on: OVCAR-4 ovarian
[30] = tested on: CCRF-CEM leukemia
[31] = tested on: UO-31 renal
[32] = tested on: U251 CNS
[33] = tested on: CAKI-1 renal
[34] = tested on: OVCAR-8 ovarian
[35] = tested on: SNB-19 CNS
[36] = tested on: NCI-H23 lung
[37] = tested on: HS 578T breast
[38] = tested on: OVCAR-3 ovarian
[39] = tested on: SNB-75 CNS
[40] = tested on: MDA-N
[41] = tested on: NCI-H522 lung
[42] = tested on: RPMI-8226 leukemia
[43] = tested on: A549 NSCLC
[44] = tested on: DU-145 prostate
[45] = tested on: OVCAR-5 ovarian
[46] = tested on: SF-539 CNS
[47] = tested on: NCI-H460 lung
[48] = tested on: SK-MEL-28 melanoma
[49] = tested on: KM12 colon
[50] = tested on: MCF7 breast
[51] = tested on: HCT-15 colon
[52] = tested on: HCT-116 colon
[53] = tested on: HOP-92 NSCLC
[54] = tested on: SK-MEL-2 melanoma
[55] = tested on: HOP-62 NSCLC

Measured: TGI

CCOC(=O)N1CCN(c2ccc3ccc(N)nc3n2)CC1
> 100 µM: all assays above
